Assay results: patent publication US12485085B2, “PPAR agonist complex and methods of use” (RODAN & FIELDS, LLC, priority 2019, dated 2025)

Experiments:
EpiDerm skin substitutes = test: Skin irritation in reconstructed human epidermal model EpiDerm (MTT viability); type: cell-based; set-up: key to Classification: I = irritant; NI = non irritant
Protocol: Materials and Methods: Thirty p of each sample was applied on top of EpiDerm skin substitutes.
EpiDerm skin substitutes (cat. EPI-200-SIT; Lot #29690) and 5% SDS solution (positive control) were obtained from MatTek (Ashland, Mass.). The test was generally performed according to MatTek protocol. The study was conducted in line with requirements of OECD GD 34 and ECVAM Performance Standard document for applying human skin models to in vitro skin irritation. This protocol utilizes the MTT-based cytotoxicity readout as the experimental endpoint, and thus effectively measures the cytotoxicity of test materials at the level of the skin. MTT [3-(4,5-Dimethylthiazol-2-yl)-2,5-diphenyltetrazolium bromide, a tetrazole] which is yellow, is reduced to purple formazan in living cells and this conversion is measured in a colorimetric assay. MTT assay measures the activity of succinate dehydrogenase, a key enzyme in the respiratory electron transport chain in mitochondria and is a generally-accepted test for measuring cytotoxicity.
Statistically significant variation was defined as ≥15% variation from the water control with p value<0.05 calculated using double-tailed t-test.

IL-8 = IL-8 quantification in EpiDerm-conditioned media (ELISA); type: cell-based, human
Protocol: The test material was assayed in duplicates. Controls were assayed in triplicates. The negative control was type I sterile water and Finsolv. The positive control was 5% SDS. All incubations were at 37° C. The pre-incubation time 1 (tissue acclimatization time) was overnight and the exposure to samples was 60 min. Tissues were then rinsed with sterile PBS and placed in the new culture medium. Post-incubation time 1 was 24 h, afterward medium was collected and saved at −20° C. for later interleukin quantification, and tissues were placed in new medium. Post-incubation time 2 was 18 h (both post-incubation times are to allow the consequences of the potential irritation to fully develop), MTT test (irritation readout) was 3 h and the extraction was left overnight. The extracted formazan (the product of the MTT conversion, proportional to cell viability) was quantified with Molecular Devices microplate reader MAX190 by colorimetry. Signal quantification was performed using SoftMax3.1.2PRO at 560 nm. For IL-8 quantification (a complementary method for assessing skin irritation), 100 μl samples of media from each well were tested in triplicates using CytoSet antibody pair for ELISA from Thermo Fischer Scientific (Waltham, Mass.; cat. #133301) according to the manufacturer's instructions. […]

CHO cells = test: Cytotoxicity observed in the PPAR-α luciferase reporter assay; details: for Cytotoxic?: Experiment 2 (sample prep in DMSO)
Protocol: A variety of samples were tested on the effect on the transcription of the PPAR-α controlled luciferase reporter gene. CHO cells were utilized and are an epithelial cell line derived from the ovary of the Chinese hamster.

PPAR-α = target: T1, PPAR-α (Homo sapiens, UniProt Q07869); test: PPAR-α luciferase reporter assay in CHO cells
T1 sequence (Q07869 1-468): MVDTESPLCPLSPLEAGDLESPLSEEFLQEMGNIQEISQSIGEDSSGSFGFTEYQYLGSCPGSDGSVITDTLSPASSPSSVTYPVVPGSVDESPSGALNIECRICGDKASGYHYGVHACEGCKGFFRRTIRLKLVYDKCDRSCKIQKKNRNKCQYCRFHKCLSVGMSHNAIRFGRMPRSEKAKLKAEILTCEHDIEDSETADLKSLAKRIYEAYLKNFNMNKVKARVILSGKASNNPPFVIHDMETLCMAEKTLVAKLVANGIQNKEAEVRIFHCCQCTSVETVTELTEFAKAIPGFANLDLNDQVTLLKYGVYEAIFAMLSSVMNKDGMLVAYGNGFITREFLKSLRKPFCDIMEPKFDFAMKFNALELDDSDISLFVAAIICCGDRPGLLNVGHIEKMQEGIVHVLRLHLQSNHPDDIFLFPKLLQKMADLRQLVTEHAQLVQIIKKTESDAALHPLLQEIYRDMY
Protocol: The objective of this project was to determine the effects of the test materials listed in Table 4 on the transcription regulatory activity of PPARα in a luciferase reporter assay system.
A variety of samples were tested on the effect on the transcription of the PPAR-α controlled luciferase reporter gene.
PPAR-α Luciferase experiment: Compositions were tested at 250 μg/mL Dilution in DMSO (FIG. 1) and 500 μg/mL Dilution in DMSO (FIG. 2).
Table 5 summarizes the effect of different concentrations of test materials on the transcriptional activation of the luciferase reporter gene under the PPAR-α-controlled promoter (2 separate experiments, Experiment 1 wherein sample prep was done in water and Experiment 2 wherein the sample prep was done in DMSO).

[1] = test system: C57BL/6 mouse melanocytes; test: Melanin content in melanocytes and melanocyte-conditioned medium; type: cell-based; details: 3 days; for % Control (extracellular melanin): melanocyte-conditioned medium
Protocol: Materials & Methods: Test material was dissolved at 100 mg/ml in DMSO the day of the experiment, diluted in sterile distilled water and samples were added in duplicates to confluent cultures of C57BL/6 mouse melanocytes well plate format. The cell growth medium was Opti-MEM supplemented with 7% horse serum (ThermoFisher Scientific, Waltham, Mass.) and antibiotics. Medium was freshly changed on Day 0 of the experiment. Cells were grown in the presence of the test material for 3 days, afterward they were frozen at −20° C., lysed in Solvable (Perkin Elmer, Waltham, Mass.) at 37° C. for 60 min. and colorimetrically quantified at 490 nm with Molecular Devices (Sunnyvale, Calif.) microplate reader MAX190. Kojic acid (100 μg/ml and 200 μg/ml) was the positive control. Statistically significant variation was defined as >20% variation from the water control with p value<0.05 calculated with double-tailed t-test.
Test materials were added to exponentially-growing cultures and the experiment was terminated 3 days later.

[2] = Lipophilic oxygen radical absorbance capacity (Lipo-ORAC) assay; type: biochemical; details: expressed in Trolox equivalents
Protocol: Because of its damaging effect on vital biological systems, oxidative stress has been implicated in more than 100 diseases and aging. The objective of this test was to measure the antioxidant potential of the test materials listed in Table I using lipophilic oxygen radical absorbance capacity (Lipo-ORAC) assay (Stock solutions were prepared in acetone at 2% and diluted in 7% RMCD immediately before the experiment). Lipo-ORAC assay measures the ability of antioxidant compounds to inhibit the decline in disodium fluorescein (FL) fluorescence that is induced by peroxyl radical generator, 2′,2′-Azobis (2-amidinopropane) dihydrochloride (AAPH). The peroxyl radical is one of the most common reactive oxygen species (ROS) found in the body. This procedure incorporates random methylated beta-cyclodextrin as a solubility enhancer and allows for quantification of antioxidant potential of lipophilic samples, using Trolox as standard. Applied Biosystems Cytofluor 4000 fluorometer and software were used for the quantification of this assay.

PPAR-γ = target: T2, PPAR-γ (Homo sapiens, UniProt P37231); test: PPAR-γ luciferase experiment; type: cell-based; details: statement of the description
T2 sequence (P37231 1-505): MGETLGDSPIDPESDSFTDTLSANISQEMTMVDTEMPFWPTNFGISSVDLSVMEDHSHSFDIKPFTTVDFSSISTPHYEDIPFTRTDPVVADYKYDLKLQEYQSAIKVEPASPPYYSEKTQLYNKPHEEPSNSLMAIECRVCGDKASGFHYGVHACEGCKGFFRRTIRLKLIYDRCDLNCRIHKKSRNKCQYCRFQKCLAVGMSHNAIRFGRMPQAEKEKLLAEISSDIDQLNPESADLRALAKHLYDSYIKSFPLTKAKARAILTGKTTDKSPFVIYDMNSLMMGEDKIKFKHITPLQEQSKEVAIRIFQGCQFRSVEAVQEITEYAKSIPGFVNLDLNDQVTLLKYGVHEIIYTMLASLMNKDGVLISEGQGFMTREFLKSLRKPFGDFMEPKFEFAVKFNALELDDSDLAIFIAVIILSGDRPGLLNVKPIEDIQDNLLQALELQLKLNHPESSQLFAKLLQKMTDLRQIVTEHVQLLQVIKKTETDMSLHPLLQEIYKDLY
Protocol: PPAR-γ Luciferase experiment: Compositions were tested at 50 μg/mL Dilution in DMSO (FIG. 3) and 200 μg/mL Dilution in DMSO (FIG. 4). Positive control: Rosiglitazone at 300 nM potent and selective agonist of PPARγ.

[3] = Experiment 2 (sample prep in DMSO), 250 μg/mL
[4] = Experiment 2 (sample prep in DMSO), 500 μg/mL
[5] = Experiment 1 (sample prep in water), 300 nM
[6] = Experiment 2 (sample prep in DMSO), 300 nM

Compound: CCCCCCCCCCCCOS(=O)(=O)[O-].[Na+] [5% SDS]
- cells viable (EpiDerm skin substitutes; MTT): 12%
- Mean of OD (EpiDerm skin substitutes; MTT formazan at 560 nm, 60 min exposure, RFV3 at 10% in Finsolv): 0.038
- Mean of Viability [% water] (EpiDerm skin substitutes; MTT, 60 min exposure, RFV3 at 10% in Finsolv): 2 % water
- Classification (EpiDerm skin substitutes; RFV3 at 10% in Finsolv): I
- decrease of the IL-8 level (IL-8): 55%

Compound: CCCCCCCCC(O)CCCCCCCCC(=O)O (centres unmarked) [10HSA, Hydroxystearic Acid]
- Cytotoxic? (CHO cells; 250 μg/mL): Yes
- Cytotoxic? (CHO cells; 500 μg/mL): Yes
- % Control (H2O) (PPAR-α; [3]): 45%
- Chemoluminescence (PPAR-α; [3]): 2 arbitrary units
- % Control (H2O) (PPAR-α; [4]): 41%
- Chemoluminescence (PPAR-α; [4]): 2 arbitrary units

Compound: Cc1nc(-c2ccc(C(F)(F)F)cc2)sc1C(=O)NCc1ccc(OC(C)(C)C(=O)O)cc1 [GW590735]
- % Control (H2O) (PPAR-α; [5]): 365%
- Chemoluminescence (PPAR-α; [5]): 344 arbitrary units
- % Control (H2O) (PPAR-α; [6]): 341%
- Chemoluminescence (PPAR-α; [6]): 19 arbitrary units
- effect on transcriptional activation of the luciferase reporter gene under the PPAR-α-controlled promoter (in words) (PPAR-α; summary of Table 5): strongly upregulated

Compound: O=c1cc(CO)occ1O [Kojic acid]
- % Control (intracellular melanin) ([1]; 100 μg/ml): 92%
- % Control (extracellular melanin) ([1]; 100 μg/ml): 90%
- % Control (intracellular melanin) ([1]; 200 μg/ml): 86%
- % Control (extracellular melanin) ([1]; 200 μg/ml): 84%

Compound: CCCCCCCCC(CCCCCC)C(=O)OC[C@H](OC(=O)C(CCCCCC)CCCCCCCC)[C@H]1OC(=O)C(OC(=O)C(CCCCCC)CCCCCCCC)=C1OC(=O)C(CCCCCC)CCCCCCCC (some centres unmarked) [Tetrahexyldecyl (THD) ascorbate]
- ORAC (Lipo-ORAC score) [2]: 0 μmoles TE/g
- ORAC (Lipo-ORAC score) ([2]; listed as THD ascorbate): no activity

Compound: Cc1c(C)c2c(c(C)c1O)CCC(C)(C(=O)O)O2 (centres unmarked) [Trolox]
- ORAC (Lipo-ORAC score) [2]: 3985 μmoles TE/g

Compound: CCCCCC/C=C/C#CCCCCCCCC(=O)O [XA, (E)-Octadec-11-en-9-ynoic acid]
- cytotoxicity (in words) (CHO cells; Example 8, FIG. 9, 500 μg/mL in DMSO): cytotoxic
- Cytotoxic? (CHO cells; 500 μg/mL): Yes
- % Control (H2O) (PPAR-α; [3]): 145%
- Chemoluminescence (PPAR-α; [3]): 8 arbitrary units
- % Control (H2O) (PPAR-α; [4]): 24%
- Chemoluminescence (PPAR-α; [4]): 1 arbitrary units
- PPAR / PPARα agonist activity (in words) (PPAR-α; statements of the description): very mild PPARα agonist
- PPARγ agonist activity (in words) (PPAR-γ): moderate PPARγ agonist

Compound: Octadecenedioic Acid [ODA]
- % Control (H2O) (PPAR-α; [3]): 278%
- Chemoluminescence (PPAR-α; [3]): 15 arbitrary units
- % Control (H2O) (PPAR-α; [4]): 97%
- Chemoluminescence (PPAR-α; [4]): 5 arbitrary units
